Results: patent publication US20250100996A1, “HETEROCYCLOALKYL AND HETEROARYL COMPOUNDS AND PHARMACEUTICAL COMPOSITIONS THAT MODULATE IKZF2” (Plexium, Inc., priority 2021, published 2025)

Legend:
[1] = target: T1, human E3 ligase component cereblon (CRBN) (Homo sapiens, UniProt Q96SW2); assay: Cereblon (CRBN) target engagement, NanoBRET TE Intracellular E3 Ligase Assay in transfected HEK-293T cells; conditions: read-out: CRBN Binding EC50
T1 construct: host or cells: HEK293T
Procedure, shortened: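 Tracer displacement was read as the 610/450 nm BRET signal after 2 h at 37° C with an 11-point dilution series, typically 10 μM to 100 pM. Live HEK-293T cells expressed NanoLuc fused N-terminal to human CRBN together with DDB1. IC50 was fitted with a four-parameter logistic model.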

[2] = target: T2, IKZF1 (Ikaros) (Homo sapiens, UniProt Q13422); assay: IKZF1 reporter degradation assay (HEK 293T IKZF1-mNeonGreen reporter cell line); type: cell-based; conditions: 24 hours incubation
T2 construct: mScarlet (behind P2A) (C, cleaved yes); expressed in transfected cells
Source text: Polycistronic plasmids were constructed for the mammalian expression of fluorescent reporter fusions of human transcription factors IKZF1 (Ikaros), IKZF2 (Helios), and IKZF3 (Aiolos). The respective protein sequences had their C-terminal end joined to a GGGGS linker repeated three times followed by mNeonGreen, P2A sequence, and mScarlet. The DNA sequences of the open reading frames are as follows:
IKZF1, IKZF2, and IKZF3 constructs were cloned into the UCOE Hygromycin expression vectors (Millipore Sigma). Reporter constructs were transfected using cationic lipid reagents into adherent HEK 293T cells and stable integrants were selected by treatment with 200 μg/mL hygromycin B. Clonal populations were obtained from the population of stable integrants either by limiting dilution or fluorescence activated cell sorting.
The clonal stable cell lines were maintained under constant 200 μg/mL hygromycin B selection while being passaged for use in the degradation assays. […] The fluorescence intensity of the IKZF1/2/3-mNeonGreen (FITC channel) and mScarlet (PE channel) reporters were routinely analyzed by flow cytometry to confirm consistent expression levels between experiments.
The IKZF1/IKZF2/IKZF3 degradation assays were carried out by harvesting the HEK 293T reporter cell lines and resuspending the cells in media formulated for reduced background fluorescence (FluoroBrite; Thermo Fisher). The respective cell lines were seeded at a density of 4000 cells/well into black-walled 384-well optical grade assay tissue culture plates. The cells were incubated overnight at 37° C. to allow for attachment to the assay plate. Dilutions of the compounds were prepared in DMSO from 10 mM compound stocks. The assay plates were treated with appropriate concentrations of the compounds by dispensing the DMSO dilutions in quadruplicate wells with an upper limit of 0.5% final DMSO.
After 24 hours incubation with the compounds, the assay plates were imaged on an ImageXpress Pico microscopy system (cells maintained at 37° C. during imaging) to obtain the fluorescent readouts. The assay plates were imaged in the FITC and Tetramethylrhodamine (TRITC) channels to obtain the mNeonGreen fluorescence intensity (reporter degradation data) and mScarlet fluorescence intensity (for cell segmentation). 293T-IKZF1 and 293T-IKZF3 reporter cell lines were imaged with exposures of 500 milliseconds (ms) for both FITC and TRITC channels, while the 293T-IKZF2 reporter cell line was imaged with exposures of 1000 ms for FITC and 1250 ms for TRITC. The resulting data was analyzed with Cell Reporter Xpress software using the 2-channel cell scoring analysis with a “percent positive” readout. The TRITC channel was selected for the “nuclei” segmentation with a threshold of 20 while the FITC channel was selected for the “Marker 1” segmentation and a threshold of 100 for the IKZF1 and IKZF3 reporter lines. […] The minimum segmentation width was set to 6 micrometers and the maximum segmentation width was set to 15 micrometers for all cell lines. The DC50 calculations were determined by regression to best fit four-parameter logistic curves using GraphPad Prism.

[3] = target: T3, IKZF2 (Helios) (Homo sapiens, UniProt Q9UKS7); assay: IKZF2 reporter degradation assay (HEK 293T IKZF2-mNeonGreen reporter cell line); type: cell-based; conditions: 24 hours incubation
T3 construct: Leu-Asp junction (codons ctcgac before the linker); mScarlet (behind P2A) (C, cleaved yes); expressed in transfected cells
Procedure, shortened: (§1)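 Readout: percent of cells positive for the mNeonGreen-tagged IKZF reporter, imaged after 24 h of compound exposure at 37 °C in stable HEK 293T lines. The P2A-linked mScarlet defined the cells. DC50 values came from four-parameter logistic regression.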

[4] = target: T4, IKZF2 (Helios) (Homo sapiens, UniProt Q96SW2+Q9UKS7); assay: as above; type: cell-based; conditions: 24 hours incubation; for inhibition at 1 µM: HEK-293T, 24 h
T4 construct: Leu-Asp junction (codons ctcgac before the linker); mScarlet (behind P2A) (C, cleaved yes); expressed in transfected cells
Procedure, shortened: as §1

[5] = target: T5, IKZF3 (Aiolos) (Homo sapiens, UniProt Q9UKT9); assay: IKZF3 reporter degradation assay (HEK 293T IKZF3-mNeonGreen reporter cell line); type: cell-based; conditions: 24 hours incubation
T5 construct: Leu-Asp junction (codons ctcgac before the linker); mScarlet (behind P2A) (C, cleaved yes); expressed in transfected cells
Procedure, shortened: as §1

[6] = HEK 293T IKZF1-mNeonGreen reporter
[7] = HEK 293T IKZF2-mNeonGreen reporter
[8] = @ 1 μM, HEK 293T IKZF2-mNeonGreen reporter
[9] = HEK 293T IKZF3-mNeonGreen reporter
[10] = 1 μM compound, HEK 293T IKZF2 reporter cells

T3 sequence (Q9UKS7 whole entry): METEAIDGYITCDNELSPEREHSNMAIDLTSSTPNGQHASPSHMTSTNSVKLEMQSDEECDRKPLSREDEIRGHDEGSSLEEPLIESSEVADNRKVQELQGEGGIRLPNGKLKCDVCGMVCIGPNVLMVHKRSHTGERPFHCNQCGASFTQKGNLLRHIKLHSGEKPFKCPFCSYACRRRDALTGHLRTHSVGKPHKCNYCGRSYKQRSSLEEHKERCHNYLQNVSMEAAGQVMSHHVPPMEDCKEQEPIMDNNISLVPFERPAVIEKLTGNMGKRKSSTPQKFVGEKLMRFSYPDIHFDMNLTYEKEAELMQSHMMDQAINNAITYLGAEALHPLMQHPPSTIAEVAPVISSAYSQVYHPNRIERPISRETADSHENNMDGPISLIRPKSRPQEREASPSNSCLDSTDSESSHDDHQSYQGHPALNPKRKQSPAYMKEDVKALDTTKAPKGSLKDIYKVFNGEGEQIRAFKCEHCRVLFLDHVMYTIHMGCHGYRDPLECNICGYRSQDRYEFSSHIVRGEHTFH
T3 sequence (Q96SW2 whole entry, further chain): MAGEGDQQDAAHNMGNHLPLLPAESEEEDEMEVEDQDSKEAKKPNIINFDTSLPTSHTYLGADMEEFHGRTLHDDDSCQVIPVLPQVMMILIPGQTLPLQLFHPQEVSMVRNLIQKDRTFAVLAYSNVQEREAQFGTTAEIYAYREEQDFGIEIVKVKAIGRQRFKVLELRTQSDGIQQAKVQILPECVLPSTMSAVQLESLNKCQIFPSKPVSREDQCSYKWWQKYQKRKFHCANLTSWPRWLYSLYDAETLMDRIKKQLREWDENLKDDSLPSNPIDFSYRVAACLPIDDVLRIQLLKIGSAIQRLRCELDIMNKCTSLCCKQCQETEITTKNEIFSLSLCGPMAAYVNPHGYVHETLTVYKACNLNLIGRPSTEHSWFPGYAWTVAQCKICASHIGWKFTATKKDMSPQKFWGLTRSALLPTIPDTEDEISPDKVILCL
T3 sequence (Q16531 whole entry partner): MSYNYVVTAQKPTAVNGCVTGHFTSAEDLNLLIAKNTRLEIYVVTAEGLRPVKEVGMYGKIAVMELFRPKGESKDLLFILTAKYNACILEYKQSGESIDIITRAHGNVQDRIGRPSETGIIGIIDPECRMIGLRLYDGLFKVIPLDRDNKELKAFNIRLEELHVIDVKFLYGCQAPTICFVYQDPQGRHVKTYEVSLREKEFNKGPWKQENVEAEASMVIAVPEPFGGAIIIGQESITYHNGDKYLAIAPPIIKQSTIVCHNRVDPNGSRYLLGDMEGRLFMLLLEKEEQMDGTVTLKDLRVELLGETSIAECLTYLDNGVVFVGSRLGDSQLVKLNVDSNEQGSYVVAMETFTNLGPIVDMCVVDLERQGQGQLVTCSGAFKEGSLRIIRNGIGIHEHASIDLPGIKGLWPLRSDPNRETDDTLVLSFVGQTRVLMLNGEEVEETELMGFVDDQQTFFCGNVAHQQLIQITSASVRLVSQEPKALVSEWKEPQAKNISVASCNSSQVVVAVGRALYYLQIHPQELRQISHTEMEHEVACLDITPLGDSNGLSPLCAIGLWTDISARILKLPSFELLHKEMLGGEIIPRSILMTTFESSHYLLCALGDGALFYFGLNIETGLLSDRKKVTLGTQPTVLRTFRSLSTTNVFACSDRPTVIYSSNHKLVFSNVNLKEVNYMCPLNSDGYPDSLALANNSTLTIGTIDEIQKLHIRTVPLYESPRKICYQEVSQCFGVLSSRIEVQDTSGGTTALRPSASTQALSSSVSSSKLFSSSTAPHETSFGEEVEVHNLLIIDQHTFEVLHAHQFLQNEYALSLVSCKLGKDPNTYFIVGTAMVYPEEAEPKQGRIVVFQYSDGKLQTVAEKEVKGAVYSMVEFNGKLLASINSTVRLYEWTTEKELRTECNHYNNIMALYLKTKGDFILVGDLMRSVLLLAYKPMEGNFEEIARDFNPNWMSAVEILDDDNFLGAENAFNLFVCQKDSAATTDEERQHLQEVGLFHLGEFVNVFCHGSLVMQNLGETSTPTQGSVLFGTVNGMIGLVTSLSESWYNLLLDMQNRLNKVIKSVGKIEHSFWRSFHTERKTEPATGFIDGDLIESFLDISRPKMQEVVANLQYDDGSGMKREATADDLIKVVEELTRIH
T4 sequence (Q9UKS7 whole entry): as the sequence (Q9UKS7 whole entry) above
T4 sequence (Q96SW2 whole entry): as the sequence (Q96SW2 whole entry, further chain) above
T4 sequence (Q16531 whole entry partner): as the sequence (Q16531 whole entry partner) above
T1 sequence (Q96SW2 whole entry): as the sequence (Q96SW2 whole entry, further chain) above
T1 sequence (Q16531 whole entry partner): as the sequence (Q16531 whole entry partner) above
T2 sequence (Q96SW2 whole entry partner): as the sequence (Q96SW2 whole entry, further chain) above
T2 sequence (Q16531 whole entry partner): as the sequence (Q16531 whole entry partner) above
T2 sequence (Q13422 whole entry): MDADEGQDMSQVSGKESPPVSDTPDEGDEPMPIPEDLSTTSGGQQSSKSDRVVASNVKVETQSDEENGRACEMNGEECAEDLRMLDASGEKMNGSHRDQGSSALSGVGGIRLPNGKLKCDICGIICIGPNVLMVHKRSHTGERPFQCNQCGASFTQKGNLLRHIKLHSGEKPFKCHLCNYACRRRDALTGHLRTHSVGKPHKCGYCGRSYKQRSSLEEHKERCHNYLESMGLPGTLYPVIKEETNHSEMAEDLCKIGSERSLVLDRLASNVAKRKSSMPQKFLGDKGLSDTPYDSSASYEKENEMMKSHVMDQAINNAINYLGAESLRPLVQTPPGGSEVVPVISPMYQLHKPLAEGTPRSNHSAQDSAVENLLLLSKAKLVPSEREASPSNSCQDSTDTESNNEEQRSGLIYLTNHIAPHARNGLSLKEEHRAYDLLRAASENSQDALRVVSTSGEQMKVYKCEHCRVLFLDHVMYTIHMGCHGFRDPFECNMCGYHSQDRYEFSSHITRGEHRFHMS
T5 sequence (Q96SW2 whole entry partner): as the sequence (Q96SW2 whole entry, further chain) above
T5 sequence (Q16531 whole entry partner): as the sequence (Q16531 whole entry partner) above
T5 sequence (Q9UKT9 whole entry): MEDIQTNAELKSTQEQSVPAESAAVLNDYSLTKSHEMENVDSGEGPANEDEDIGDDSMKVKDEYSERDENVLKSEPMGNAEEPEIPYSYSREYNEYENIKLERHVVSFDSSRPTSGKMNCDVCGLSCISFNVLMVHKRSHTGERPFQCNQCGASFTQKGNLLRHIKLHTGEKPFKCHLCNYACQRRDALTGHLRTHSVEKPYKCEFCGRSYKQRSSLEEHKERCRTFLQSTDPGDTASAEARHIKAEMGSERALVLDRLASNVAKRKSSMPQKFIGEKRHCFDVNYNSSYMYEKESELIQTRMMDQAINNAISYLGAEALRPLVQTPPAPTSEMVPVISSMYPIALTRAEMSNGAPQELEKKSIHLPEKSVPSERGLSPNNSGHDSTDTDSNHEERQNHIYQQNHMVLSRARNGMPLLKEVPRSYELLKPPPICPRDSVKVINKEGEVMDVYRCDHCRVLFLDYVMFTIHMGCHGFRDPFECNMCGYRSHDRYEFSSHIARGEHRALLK

Row | SMILES | EC50 [1] [nM] | DC50 [2, 6] [nM] | DC50 [3, 7] [nM] | inhibition at 1 µM [4, 8] [%] | DC50 [5, 9] [nM] | inhibition at 1 µM ([5]; HEK-293T, 24 h, @ 1 μM, HEK 293T IKZF3-mNeonGreen reporter) [%] | IKZF2 % Degradation @ 1 μM [4, 8] [%] | DC50 ([2]; HEK 293T IKZF1 reporter cells) [nM] | DC50 ([3]; HEK 293T IKZF2 reporter cells) [nM] | inhibition at 1 µM [4, 10] [%] | DC50 ([5]; HEK 293T IKZF3 reporter cells) [nM]
1 | O=C1CCC(N2Cc3cc(O[C@H]4CCCC[C@@H]4N4CC(c5ccncc5F)C4)ccc3C2=O)C(=O)N1 (mixture of isomers) [Compound 167-B, Rac-3-(5-(((trans)-2-(3-(3-fluoropyridin-4-yl)azetidin-1-yl)cyclohexyl)oxy)-1-oxoisoindolin-2-yl)piperidine-2,6-dione] | 74 | > 30000 | 241 | 28.8 | > 30000 | – | – | – | – | – | –
2 | O=C1CCC(N2Cc3cc(O[C@@H]4CCC[C@@H]4N4CC(c5ccnc6ccccc56)C4)ccc3C2=O)C(=O)N1 (stereo partly drawn) [Compound 194-B, 3-(1-oxo-5-(((1R,2S)-2-(3-(quinolin-4-yl)azetidin-1-yl)cyclopentyl)oxy)isoindolin-2-yl)piperidine-2,6-dione] | 17 | > 30000 | 7 | 79.8 | 283 | 26.6 | – | – | – | – | –
3 | Cc1cnccc1C1CN(C2CCCCC2Oc2ccc3c(c2)CN(C2CCC(=O)NC2=O)C3=O)C1 (stereo not shown) [Compound 198-B, 3-(5-((2-(3-(3-methylpyridin-4-yl)azetidin-1-yl)cyclohexyl)oxy)-1-oxoisoindolin-2-yl)piperidine-2,6-dione] | 10 | > 30000 | 11 | 72.3 | > 30000 | – | – | – | – | – | –
4 | O=C1CCC(N2Cc3cc(O[C@@H]4CCCC[C@@H]4N4CC(c5ccc(C(F)(F)F)nc5)C4)ccc3C2=O)C(=O)N1 (mixture of isomers) [Compound 183-B, Rac-3-(1-oxo-5-(((cis)-2-(3-(6-(trifluoromethyl)pyridin-3-yl)azetidin-1-yl)cyclohexyl)oxy)isoindolin-2-yl)piperidine-2,6-dione] | 15 | > 30000 | 10 | 81.3 | > 30000 | – | – | – | – | – | –
5 | O=C1CCC(N2Cc3cc(O[C@@H]4CCCC[C@@H]4N4CC(c5ccc(C(F)(F)F)cn5)C4)ccc3C2=O)C(=O)N1 (mixture of isomers) [Compound 182-B, Rac-3-(1-oxo-5-(((cis)-2-(3-(5-(trifluoromethyl)pyridin-2-yl)azetidin-1-yl)cyclohexyl)oxy)isoindolin-2-yl)piperidine-2,6-dione] | 9 | > 30000 | 5 | 78.3 | > 30000 | – | – | – | – | – | –
6 | O=C1CCC(N2Cc3cc(O[C@H]4CCCC[C@H]4N4CC(c5ccncc5)C4)ccc3C2=O)C(=O)N1 (single isomer, unassigned) [Compound 86-B] | 76 | > 30000 | 189 | – | – | – | 22.5 | – | – | – | –
7 | O=C1CCC(N2Cc3cc(OC4CCCCC4N4CC(c5cccc6[nH]ncc56)C4)ccc3C2=O)C(=O)N1 (stereo not shown) [Compound 71-B, 3-(5-((2-(3-(1H-indazol-4-yl)azetidin-1-yl)cyclohexyl)oxy)-1-oxoisoindolin-2-yl)piperidine-2,6-dione] | – | – | – | – | – | – | – | > 30000 | 28.3 | 79.3 | > 30000
8 | O=C1CCC(N2Cc3cc(OC4CCCCC4N4CC(c5ccnc6ccccc56)C4)ccc3C2=O)C(=O)N1 (stereo not shown) [Compound 66-B, 3-(1-oxo-5-((2-(3-(quinolin-4-yl)azetidin-1-yl)cyclohexyl)oxy)isoindolin-2-yl)piperidine-2,6-dione] | – | – | – | – | – | – | – | > 30000 | 13.2 | 86.4 | > 30000
9 | O=C1CCC(N2Cc3cc(O[C@H]4CCCC[C@@H]4N4CC(c5ccncc5)C4)ccc3C2=O)C(=O)N1 (single isomer, unassigned) [Compound 85-B] | 28 | > 30000 | 216 | 27.5 | – | – | – | – | – | – | –
10 | O=C1CCC(N2Cc3cc(O[C@H]4CCCC[C@@H]4N4CC(C5CCOCC5)C4)ccc3C2=O)C(=O)N1 (stereo partly drawn) [Compound 1-A, 3-(1-oxo-5-(((1S,2S)-2-(3-(tetrahydro-2H-pyran-4-yl)azetidin-1-yl)cyclohexyl)oxy)isoindolin-2-yl)piperidine-2,6-dione] | – | – | – | – | – | – | – | > 30000 | 8.89 | 83.4 | > 30000

Further lines, results first:

Row | EC50 [1] [nM] | DC50 [2, 6] [nM] | DC50 [3, 7] [nM] | inhibition at 1 µM [4, 8] [%] | DC50 [5, 9] [nM] | inhibition at 1 µM ([5]; HEK-293T, 24 h, @ 1 μM, HEK 293T IKZF3-mNeonGreen reporter) [%] | IKZF2 % Degradation @ 1 μM [4, 8] [%] | DC50 ([2]; HEK 293T IKZF1 reporter cells) [nM] | DC50 ([3]; HEK 293T IKZF2 reporter cells) [nM] | inhibition at 1 µM [4, 10] [%] | DC50 ([5]; HEK 293T IKZF3 reporter cells) [nM] | SMILES
11 | 214 | > 30000 | 601 | 17.6 | > 30000 | – | – | – | – | – | – | O=C1CCC(N2Cc3cc(OC4CCC[C@@H]4N4CC(c5cncnc5)C4)ccc3C2=O)C(=O)N1 (mixture of isomers) [Compound 196-B, Rac-3-(1-oxo-5-(((cis)-2-(3-(pyrimidin-5-yl)azetidin-1-yl)cyclopentyl)oxy)isoindolin-2-yl)piperidine-2,6-dione]
12 | 2 | > 30000 | 4 | 70.3 | > 30000 | – | – | – | – | – | – | O=C1CCC(N2Cc3cc(OC4CCCCC4N4CC(c5ncc(C6CC6)cn5)C4)ccc3C2=O)C(=O)N1 (stereo not shown) [Compound 177-B, 3-(5-((2-(3-(5-cyclopropylpyrimidin-2-yl)azetidin-1-yl)cyclohexyl)oxy)-1-oxoisoindolin-2-yl)piperidine-2,6-dione]
13 | – | – | – | – | – | – | – | > 30000 | 188 | 49.9 | > 30000 | O=C1CCC(N2Cc3cc(OC4CCCCC4N4CC(c5cccnc5)C4)ccc3C2=O)C(=O)N1 (stereo not shown) [Compound 36-B, 3-(1-oxo-5-((2-(3-(pyridin-3-yl)azetidin-1-yl)cyclohexyl)oxy)isoindolin-2-yl)piperidine-2,6-dione]
14 | – | – | – | – | – | – | – | > 30000 | 321 | 24 | > 30000 | O=C1CCC(N2Cc3cc(OC4CCCCC4N4CC(c5ccccn5)C4)ccc3C2=O)C(=O)N1 (stereo not shown) [Compound 51-B, 3-(1-oxo-5-((2-(3-(pyridin-2-yl)azetidin-1-yl)cyclohexyl)oxy)isoindolin-2-yl)piperidine-2,6-dione]
15 | – | – | – | – | – | – | – | > 30000 | 120 | 63.1 | > 30000 | O=C1CCC(N2Cc3cc(OC4CCCCC4N4CC(c5cnccn5)C4)ccc3C2=O)C(=O)N1 (stereo not shown) [Compound 2-B, 3-(1-oxo-5-((2-(3-(pyrazin-2-yl)azetidin-1-yl)cyclohexyl)oxy)isoindolin-2-yl)piperidine-2,6-dione]
16 | – | – | – | – | – | – | – | > 30000 | 22.6 | 80.6 | > 30000 | COc1ccc(C2CN(C3CCCCC3Oc3ccc4c(c3)CN(C3CCC(=O)NC3=O)C4=O)C2)cn1 (stereo not shown) [Compound 16-B, 3-(5-((2-(3-(6-methoxypyridin-3-yl)azetidin-1-yl)cyclohexyl)oxy)-1-oxoisoindolin-2-yl)piperidine-2,6-dione]
17 | – | – | – | – | – | – | – | > 30000 | 29.9 | 74.9 | > 30000 | O=C1CCC(N2Cc3cc(OC4CCCCC4N4CC(c5ncc(F)cn5)C4)ccc3C2=O)C(=O)N1 (stereo not shown) [Compound 6-B, 3-(5-((2-(3-(5-fluoropyrimidin-2-yl)azetidin-1-yl)cyclohexyl)-oxy)-1-oxoisoindolin-2-yl)piperidine-2,6-dione]
